Assay results taken from ChEMBL document CHEMBL1201862, “PubChem BioAssay data set” (2004).
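Each compound was tested at five concentrations against cells in 96-well plates for 48 hours. GI50 is the concentration that inhibits growth by half.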 Activity calls are given as the source filed them. No stated cut-off is given here; in the data, active = GI50 up to about 1.1 µM and inactive = higher.

Legend:
Experiment in all cases: inhibition of tumour cell growth, NCI panel, 48 h
786-0 = tested on: 786-0
A549 = tested on: A549
ACHN = tested on: ACHN
BT-549 = tested on: BT-549
CAKI-1 = tested on: CAKI-1
CCRF-CEM = tested on: CCRF-CEM
COLO 205 = tested on: COLO 205
DU-145 = tested on: DU-145
EKVX = tested on: EKVX
HCC 2998 = tested on: HCC 2998
HCT-116 = tested on: HCT-116
HCT-15 = tested on: HCT-15
HL-60 = tested on: HL-60
HOP-62 = tested on: HOP-62
HOP-92 = tested on: HOP-92
HT-29 = tested on: HT-29
Hs-578T = tested on: Hs-578T
IGROV-1 = tested on: IGROV-1
K562 = tested on: K562
KM12 = tested on: KM12
LOX IMVI = tested on: LOX IMVI
M14 = tested on: M14
MCF7 = tested on: MCF7
MDA-MB-231 = tested on: MDA-MB-231
MDA-MB-435 = tested on: MDA-MB-435
MDA-N = tested on: MDA-N
MOLT-4 = tested on: MOLT-4
Malme-3M = tested on: Malme-3M
NCI-H226 = tested on: NCI-H226
NCI-H23 = tested on: NCI-H23
NCI-H460 = tested on: NCI-H460
NCI-H522 = tested on: NCI-H522
NCI/ADR-RES = tested on: NCI/ADR-RES
OVCAR-3 = tested on: OVCAR-3
OVCAR-4 = tested on: OVCAR-4
OVCAR-8 = tested on: OVCAR-8
PC-3 = tested on: PC-3
RPMI-8226 = tested on: RPMI-8226
RXF 393 = tested on: RXF 393
SF-268 = tested on: SF-268
SF-295 = tested on: SF-295
SF-539 = tested on: SF-539
SK-MEL-28 = tested on: SK-MEL-28
SK-MEL-2 = tested on: SK-MEL-2
SK-MEL-5 = tested on: SK-MEL-5
SK-OV-3 = tested on: SK-OV-3
SN12C = tested on: SN12C
SNB-19 = tested on: SNB-19
SNB-75 = tested on: SNB-75
SR = tested on: SR
SW-620 = tested on: SW-620
T47D = tested on: T47D
TK-10 = tested on: TK-10
U-251 = tested on: U-251
UACC-257 = tested on: UACC-257
UACC-62 = tested on: UACC-62
UO-31 = tested on: UO-31
OVCAR-5 = tested on: OVCAR-5

c1ccc(/N=C2\c3ccccc3CN2c2ccccc2)cc1
GI50 (786-0): > 100 µM (inactive) | GI50 (A549): > 100 µM (inactive) | GI50 (ACHN): > 100 µM (inactive) | GI50 (BT-549): > 100 µM (inactive) | GI50 (CAKI-1): > 100 µM (inactive) | GI50 (CCRF-CEM): > 100 µM (inactive) | GI50 (COLO 205): > 100 µM (inactive) | GI50 (DU-145): > 100 µM (inactive) | GI50 (EKVX): > 100 µM (inactive) | GI50 (HCC 2998): > 100 µM (inactive) | GI50 (HCT-116): > 100 µM (inactive) | GI50 (HCT-15): > 100 µM | GI50 (HL-60): > 100 µM (inactive) | GI50 (HOP-62): > 100 µM (inactive) | GI50 (HOP-92): 46.5 µM (inactive) | GI50 (HT-29): > 100 µM (inactive) | GI50 (Hs-578T): > 100 µM (inactive) | GI50 (IGROV-1): > 100 µM (inactive) | GI50 (K562): > 100 µM (inactive) | GI50 (KM12): > 100 µM (inactive) | GI50 (LOX IMVI): > 100 µM (inactive) | GI50 (M14): > 100 µM (inactive) | GI50 (MCF7): > 100 µM (inactive) | GI50 (MDA-MB-231): > 100 µM (inactive) | GI50 (MDA-MB-435): > 100 µM (inactive) | GI50 (MDA-N): > 100 µM (inactive) | GI50 (MOLT-4): > 100 µM (inactive) | GI50 (Malme-3M): > 100 µM (inactive) | GI50 (NCI-H226): > 100 µM (inactive) | GI50 (NCI-H23): > 100 µM (inactive) | GI50 (NCI-H460): > 100 µM (inactive) | GI50 (NCI-H522): > 100 µM (inactive) | GI50 (NCI/ADR-RES): > 100 µM (inactive) | GI50 (OVCAR-3): > 100 µM (inactive) | GI50 (OVCAR-4): > 100 µM (inactive) | GI50 (OVCAR-8): > 100 µM (inactive) | GI50 (PC-3): > 100 µM (inactive) | GI50 (RPMI-8226): > 100 µM (inactive) | GI50 (RXF 393): > 100 µM (inactive) | GI50 (SF-268): > 100 µM (inactive) | GI50 (SF-295): > 100 µM (inactive) | GI50 (SF-539): > 100 µM (inactive) | GI50 (SK-MEL-28): > 100 µM (inactive) | GI50 (SK-MEL-2): > 100 µM (inactive) | GI50 (SK-MEL-5): > 100 µM (inactive) | GI50 (SK-OV-3): > 100 µM (inactive) | GI50 (SN12C): > 100 µM (inactive) | GI50 (SNB-19): > 100 µM (inactive) | GI50 (SNB-75): 74.3 µM (inactive) | GI50 (SR): > 100 µM (inactive) | GI50 (SW-620): > 100 µM (inactive) | GI50 (T47D): 80.2 µM (inactive) | GI50 (TK-10): > 100 µM (inactive) | GI50 (U-251): > 100 µM (inactive) | GI50 (UACC-257): > 100 µM (inactive) | GI50 (UACC-62): > 100 µM (inactive) | GI50 (UO-31): > 100 µM (inactive)

N=C1/C(=C/c2ccc(F)cc2)C(=O)N=C2SC=NN12
GI50 (786-0): > 100 µM (inactive) | GI50 (A549): > 100 µM (inactive) | GI50 (ACHN): > 100 µM (inactive) | GI50 (BT-549): 94.6 µM (inactive) | GI50 (CAKI-1): > 100 µM (inactive) | GI50 (CCRF-CEM): > 100 µM (inactive) | GI50 (COLO 205): > 100 µM (inactive) | GI50 (DU-145): > 100 µM (inactive) | GI50 (EKVX): > 100 µM (inactive) | GI50 (HCC 2998): > 100 µM (inactive) | GI50 (HCT-116): > 100 µM (inactive) | GI50 (HCT-15): > 100 µM | GI50 (HL-60): 80.5 µM (inactive) | GI50 (HOP-62): > 100 µM (inactive) | GI50 (HOP-92): 69.2 µM (inactive) | GI50 (HT-29): > 100 µM (inactive) | GI50 (Hs-578T): > 100 µM (inactive) | GI50 (IGROV-1): > 100 µM (inactive) | GI50 (K562): > 100 µM (inactive) | GI50 (KM12): > 100 µM (inactive) | GI50 (LOX IMVI): 12.9 µM (inactive) | GI50 (M14): > 100 µM (inactive) | GI50 (MCF7): > 100 µM (inactive) | GI50 (MDA-MB-231): > 100 µM (inactive) | GI50 (MDA-MB-435): 83.4 µM (inactive) | GI50 (MDA-N): 83.2 µM (inactive) | GI50 (MOLT-4): > 100 µM (inactive) | GI50 (Malme-3M): > 100 µM (inactive) | GI50 (NCI-H226): > 100 µM (inactive) | GI50 (NCI-H23): > 100 µM (inactive) | GI50 (NCI-H460): > 100 µM (inactive) | GI50 (NCI-H522): > 100 µM (inactive) | GI50 (NCI/ADR-RES): > 100 µM (inactive) | GI50 (OVCAR-3): > 100 µM (inactive) | GI50 (OVCAR-4): > 100 µM (inactive) | GI50 (OVCAR-5): > 100 µM (inactive) | GI50 (OVCAR-8): > 100 µM (inactive) | GI50 (PC-3): > 100 µM (inactive) | GI50 (RPMI-8226): > 100 µM (inactive) | GI50 (RXF 393): 31.5 µM (inactive) | GI50 (SF-268): > 100 µM (inactive) | GI50 (SF-295): > 100 µM (inactive) | GI50 (SF-539): > 100 µM (inactive) | GI50 (SK-MEL-28): > 100 µM (inactive) | GI50 (SK-MEL-2): > 100 µM (inactive) | GI50 (SK-MEL-5): 62.5 µM (inactive) | GI50 (SK-OV-3): > 100 µM (inactive) | GI50 (SN12C): > 100 µM (inactive) | GI50 (SNB-19): > 100 µM (inactive) | GI50 (SNB-75): 92.3 µM (inactive) | GI50 (SR): 92.3 µM (inactive) | GI50 (SW-620): > 100 µM (inactive) | GI50 (T47D): > 100 µM (inactive) | GI50 (TK-10): > 100 µM (inactive) | GI50 (U-251): > 100 µM (inactive) | GI50 (UACC-257): > 100 µM (inactive) | GI50 (UACC-62): 87.9 µM (inactive) | GI50 (UO-31): > 100 µM (inactive)
